# Experimental data: patent US9896441B2 (Lycera Corporation, priority 2014, dated 2018)
# Molecular target: T1, RORγ-LBD (Homo sapiens, UniProt P51449)
# T1 construct: made in house; host or cells: SF9 cells (baculovirus); used as diluted lysate
# T1 sequence (P51449 269-508 limits assumed): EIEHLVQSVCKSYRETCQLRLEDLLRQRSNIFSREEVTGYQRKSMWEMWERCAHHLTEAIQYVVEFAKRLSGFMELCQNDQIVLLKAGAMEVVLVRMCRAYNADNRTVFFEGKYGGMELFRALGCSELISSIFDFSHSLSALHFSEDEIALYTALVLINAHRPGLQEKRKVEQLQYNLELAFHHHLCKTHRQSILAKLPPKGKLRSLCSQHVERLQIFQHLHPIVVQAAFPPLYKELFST
# Assay: RORγ-Ligand Binding Domain (LBD) TR-FRET Assay;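 as to TR-FRET Assay Max Response: 665/615 nm signal ratio set to 100 without ursolic acid or test compound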
# Type: biochemical
# Details: RORγ-LBD TR-FRET
# Description: Assay procedures and results are described below.
# HIS-tagged RORγ-LBD protein was expressed in SF9 cells using a baculovirus expression system. The lysate was diluted in assay buffer (50 mM Tris pH 7.0, 50 mM KCl, 1 mM EDTA, 0.1 mM DTT, 0.01% BSA) to obtain RORγ-LBD final concentration of ˜3 nM in a 384-well assay plate (need to titrate for each batch of protein).
# A stock of biotinylated-LXXLL peptide from coactivator SRC1 (Biotin-[…]) was prepared in assay buffer and added to each well (200 nM final concentration). […] RORγ antagonist ursolic acid was also included at a final concentration of 2 μM. Compounds were diluted in DMSO and further diluted in assay buffer with a final DMSO concentration at 1%.
row,EC50,SMILES
1,< 500 nM,O=S(=O)(c1cccc(C(F)(F)F)c1)N1CCCc2cc(Cl)c(OCc3c(F)cccc3Cl)cc21 [Example 28A]
2,> 10000 nM,"CCCn1ccc(/C=C/c2ccc3c(c2)N(S(=O)(=O)c2cccc(C(F)(F)F)c2)C[C@H](CCC(=O)O)O3)n1 [Example 89BZ, (S,E)-3-(6-(2-(1-propyl-1H-pyrazol-3-yl)vinyl)-4-((3-(trifluoromethyl)phenyl)sulfonyl)-3,4-dihydro-2H-benzo[b][1,4]oxazin-2-yl)propanoic acid]"
3,< 500 nM,O=S(=O)(c1cccc(C(F)(F)F)c1)N1CCCc2cc(C3CC3)c(OCc3c(F)cccc3C3CC3)cc21 [Example 28C]

# Further lines, the compound ahead of its results:
row,SMILES,EC50
1,"O=S(=O)(c1cccc(C(F)(F)F)c1)N1CCCc2cc(OCc3ccccc3)ccc21 [Example 25K, 6-(benzyloxy)-1-((3-(trifluoromethyl)phenyl)sulfonyl)-1,2,3,4-tetrahydroquinoline]",< 500 nM
2,"O=S(=O)(c1cccc(C(F)(F)F)c1)N1CCCc2cc(OC3CCCCC3)ccc21 [Example 25L, 6-(cyclohexyloxy)-1-((3-(trifluoromethyl)phenyl)sulfonyl)-1,2,3,4-tetrahydroquinoline]",< 500 nM
3,"COc1cc(S(=O)(=O)N2CCCc3ccc(OCc4c(F)cccc4C4CC4)cc32)ccc1F [Example 25T, 7-((2-cyclopropyl-6-fluorobenzyl)oxy)-1-((4-fluoro-3-methoxyphenyl)sulfonyl)-1,2,3,4-tetrahydroquinoline]",< 500 nM
4,"COc1cc(S(=O)(=O)N2CCCc3ccc(O[C@@H]4CCc5ccccc54)cc32)ccc1F [Example 25B, (R)-7-((2,3-dihydro-1H-inden-1-yl)oxy)-1-((4-fluoro-3-methoxyphenyl)sulfonyl)-1,2,3,4-tetrahydroquinoline]",< 500 nM
5,"COc1cc(S(=O)(=O)N2CCCc3ccc(O[C@@H]4c5ccccc5C[C@@H]4C)cc32)ccc1F (relative stereo) [Example 25D, 1-((4-fluoro-3-methoxyphenyl)sulfonyl)-7-(((cis)-2-methyl-2,3-dihydro-1H-inden-1-yl)oxy)-1,2,3,4-tetrahydroquinoline]",< 500 nM

# Same assay, conditions: RORγ-LBD TR-FRET assay
row,EC50,SMILES
1,< 500 nM,"CCOC(=O)C(C)(C)CC1CC(S(=O)(=O)c2cccc(C(F)(F)F)c2)c2cc(OCc3c(F)cccc3Cl)ccc2O1 (centres unmarked) [Example 186D, ethyl 3-(6-((2-chloro-6-fluorobenzyl)oxy)-4-((3-(trifluoromethyl)phenyl)-sulfonyl)chroman-2-yl)-2,2-dimethylpropanoate]"
2,< 500 nM,"COC(=O)N[C@@H]1Cc2ccc(/C=C(\C)c3c(F)cccc3Cl)cc2N(S(=O)(=O)c2cccc(C(F)(F)F)c2)[C@@H]1C [Example 143, Methyl ((2R,3R)-7-((E)-2-(2-chloro-6-fluorophenyl)prop-1-en-1-yl)-2-methyl-1-((3-(trifluoromethyl)phenyl)sulfonyl)-1,2,3,4-tetrahydroquinolin-3-yl)carbamate]"

# Same assay, conditions: RORγ-LBD TR-FRET assay, maximum response
row,SMILES,TR-FRET Assay Max Response
1,"CCOC(=O)C(C)(C)CC1CC(S(=O)(=O)c2cccc(C(F)(F)F)c2)c2cc(OCc3c(F)cccc3Cl)ccc2O1 (centres unmarked) [Example 186D, ethyl 3-(6-((2-chloro-6-fluorobenzyl)oxy)-4-((3-(trifluoromethyl)phenyl)-sulfonyl)chroman-2-yl)-2,2-dimethylpropanoate]",*** (a value in the range of greater than 150 to 200)
2,"COC(=O)N[C@@H]1Cc2ccc(/C=C(\C)c3c(F)cccc3Cl)cc2N(S(=O)(=O)c2cccc(C(F)(F)F)c2)[C@@H]1C [Example 143, Methyl ((2R,3R)-7-((E)-2-(2-chloro-6-fluorophenyl)prop-1-en-1-yl)-2-methyl-1-((3-(trifluoromethyl)phenyl)sulfonyl)-1,2,3,4-tetrahydroquinolin-3-yl)carbamate]",** (a value in the range of greater than 90 to 150)

# Same assay, conditions: with 2 μM ursolic acid (RORγ antagonist); highest test concentration 10 μM
row,EC50,SMILES
1,< 500 nM,O=C(O)C1Cc2ccc(OCc3cc(C(F)(F)F)ccc3F)cc2N(S(=O)(=O)c2cccc(C(F)(F)F)c2)C1 (centres unmarked)
2,< 500 nM,CCn1cc(S(=O)(=O)N2CC(C(=O)O)Cc3ccc(/C=C(\C)c4c(F)cccc4Cl)cc32)c(Cl)n1 (centres unmarked)
3,500 to 5000 nM,Cc1nn(C(F)F)cc1S(=O)(=O)N1CC(C(=O)O)Cc2ccc(OCc3c(F)cccc3Cl)cc21 (centres unmarked)
4,< 500 nM,O=S(=O)(c1cccc(C(F)(F)F)c1)N1CC(CO)Cc2ccc(OCc3c(F)cccc3Cl)cc21 (centres unmarked)
5,< 500 nM,CCn1cc(S(=O)(=O)N2C[C@H](CNC(C)=O)Nc3ccc(NCc4c(F)cccc4Cl)cc32)c(Cl)n1
6,< 500 nM,COC(=O)C[C@H]1CN(S(=O)(=O)c2cccc(C(F)(F)F)c2)c2cc(NCc3c(F)cccc3Cl)ccc2O1
7,< 500 nM,CCOC(=O)C1Cc2ccc(OCc3c(F)cccc3Cl)cc2N(S(=O)(=O)c2cn(CC)nc2Cl)C1 (centres unmarked) [drawing 1599]
8,> 10000 nM,O=C(O)C1Cc2ccc(OCc3ccc4ccccc4c3)cc2N(S(=O)(=O)c2cccc(C(F)(F)F)c2)C1 (centres unmarked)
